Values quoted from earlier work in article PMC9516332 (Frontiers in Oncology, 2022).
Where two headings read alike, the source gives them in different places.

Columns and labels:
Details in all cases: cited from earlier work
[1] = molecular target: T1, panel of 255 wild-type kinases (Homo sapiens, UniProt P36888)
T1 sequence (P36888 27-993): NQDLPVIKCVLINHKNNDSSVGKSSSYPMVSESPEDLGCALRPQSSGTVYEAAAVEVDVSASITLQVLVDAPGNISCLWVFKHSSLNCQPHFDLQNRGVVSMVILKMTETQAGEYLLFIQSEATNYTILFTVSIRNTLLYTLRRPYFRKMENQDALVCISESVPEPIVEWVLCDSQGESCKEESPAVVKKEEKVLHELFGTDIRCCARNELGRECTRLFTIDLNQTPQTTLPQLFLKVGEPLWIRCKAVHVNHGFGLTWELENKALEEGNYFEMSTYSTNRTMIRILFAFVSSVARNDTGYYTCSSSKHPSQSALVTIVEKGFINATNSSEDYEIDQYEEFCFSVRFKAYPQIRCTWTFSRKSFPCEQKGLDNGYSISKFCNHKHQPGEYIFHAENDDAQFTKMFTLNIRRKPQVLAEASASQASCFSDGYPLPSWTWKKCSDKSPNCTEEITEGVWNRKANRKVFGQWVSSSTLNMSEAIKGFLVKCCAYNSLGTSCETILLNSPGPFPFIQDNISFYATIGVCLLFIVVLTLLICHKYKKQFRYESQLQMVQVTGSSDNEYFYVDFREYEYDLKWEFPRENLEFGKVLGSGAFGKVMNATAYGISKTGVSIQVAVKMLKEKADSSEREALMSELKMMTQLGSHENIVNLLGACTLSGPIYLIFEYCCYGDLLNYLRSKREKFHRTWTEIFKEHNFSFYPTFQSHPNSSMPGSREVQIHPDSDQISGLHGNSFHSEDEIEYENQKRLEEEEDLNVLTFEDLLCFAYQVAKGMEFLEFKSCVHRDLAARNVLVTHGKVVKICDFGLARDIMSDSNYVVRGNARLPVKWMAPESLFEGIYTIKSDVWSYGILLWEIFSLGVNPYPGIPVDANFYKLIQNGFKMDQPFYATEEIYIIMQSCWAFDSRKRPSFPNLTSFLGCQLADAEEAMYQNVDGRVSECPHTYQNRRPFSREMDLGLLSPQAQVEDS

[2] = molecular target: T2, panel of 255 wild-type kinases (Homo sapiens, UniProt O00418)
T2 sequence (O00418 1-725): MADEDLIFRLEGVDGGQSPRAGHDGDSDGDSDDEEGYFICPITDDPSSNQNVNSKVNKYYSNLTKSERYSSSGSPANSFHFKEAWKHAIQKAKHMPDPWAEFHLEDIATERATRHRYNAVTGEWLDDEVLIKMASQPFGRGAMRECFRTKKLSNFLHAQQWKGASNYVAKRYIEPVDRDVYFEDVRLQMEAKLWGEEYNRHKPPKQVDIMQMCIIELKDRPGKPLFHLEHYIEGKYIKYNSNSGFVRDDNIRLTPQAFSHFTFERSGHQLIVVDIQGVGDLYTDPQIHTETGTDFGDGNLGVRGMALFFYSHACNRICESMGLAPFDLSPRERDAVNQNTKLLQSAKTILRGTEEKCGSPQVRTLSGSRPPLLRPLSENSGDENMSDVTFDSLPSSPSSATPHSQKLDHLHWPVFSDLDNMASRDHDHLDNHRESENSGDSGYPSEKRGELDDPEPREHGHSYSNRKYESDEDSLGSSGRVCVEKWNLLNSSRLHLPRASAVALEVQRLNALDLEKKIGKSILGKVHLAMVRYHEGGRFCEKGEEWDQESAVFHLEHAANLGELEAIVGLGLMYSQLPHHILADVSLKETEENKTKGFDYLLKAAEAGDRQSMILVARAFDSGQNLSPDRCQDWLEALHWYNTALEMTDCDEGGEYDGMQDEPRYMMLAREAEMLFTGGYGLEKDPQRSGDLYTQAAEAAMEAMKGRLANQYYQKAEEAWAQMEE

[3] = molecular target: T3, panel of 255 wild-type kinases (Homo sapiens, UniProt Q92630)
T3 sequence (Q92630 1-601): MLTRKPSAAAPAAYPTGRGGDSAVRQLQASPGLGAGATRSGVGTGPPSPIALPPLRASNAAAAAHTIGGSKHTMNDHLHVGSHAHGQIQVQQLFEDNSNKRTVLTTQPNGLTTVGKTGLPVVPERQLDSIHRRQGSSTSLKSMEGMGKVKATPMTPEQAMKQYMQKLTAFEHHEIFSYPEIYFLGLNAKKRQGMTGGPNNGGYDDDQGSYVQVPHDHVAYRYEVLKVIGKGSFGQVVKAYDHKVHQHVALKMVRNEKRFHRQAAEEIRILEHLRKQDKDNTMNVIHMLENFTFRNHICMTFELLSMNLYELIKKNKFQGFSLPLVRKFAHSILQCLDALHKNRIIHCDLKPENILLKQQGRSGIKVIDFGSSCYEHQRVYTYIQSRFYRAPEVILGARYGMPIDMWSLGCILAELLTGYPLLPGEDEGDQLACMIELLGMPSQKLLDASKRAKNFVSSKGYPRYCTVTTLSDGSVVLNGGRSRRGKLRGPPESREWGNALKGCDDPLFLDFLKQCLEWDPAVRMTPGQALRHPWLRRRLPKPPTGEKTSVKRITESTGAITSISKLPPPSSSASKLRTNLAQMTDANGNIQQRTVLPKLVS

[4] = molecular target: panel of 255 wild-type kinases (Homo sapiens, UniProt Q9Y6M4)
[5] = kinase FLT3, 1 µmol/L single concentration, ref DOI: 10.1158/1535-7163.MCT-18-0877
[6] = kinase EEF2K, 1 µmol/L single concentration, ref DOI: 10.1158/1535-7163.MCT-18-0877
[7] = kinase DYRK2, 1 µmol/L single concentration, ref DOI: 10.1158/1535-7163.MCT-18-0877
[8] = kinase CK1γ3, 1 µmol/L single concentration, ref DOI: 10.1158/1535-7163.MCT-18-0877
[9] = kinase EEF2K, 1 µmol/L single concentration, ref DOI: 10.1371/journal.pone.0092146
[10] = kinase DYRK2, 1 µmol/L single concentration, ref DOI: 10.1371/journal.pone.0092146
[11] = kinase CK1γ3, 1 µmol/L single concentration, ref DOI: 10.1371/journal.pone.0092146
[12] = kinase FLT3, 1 µmol/L single concentration, ref DOI: 10.1371/journal.pone.0092146

Row | Compound | %-inhibition at 1 µmol/L, FLT3 [1, 5] [%] | %-inhibition at 1 µmol/L, EEF2K [2, 6] [%] | %-inhibition at 1 µmol/L, DYRK2 [3, 7] [%] | %-inhibition at 1 µmol/L, CK1γ3 [4, 8] [%] | %-inhibition at 1 µmol/L, DYRK2 [3, 10] [%] | also measured
1 | CC#CC(=O)N1CCC[C@H]1c1nc(-c2ccc(C(=O)Nc3ccccn3)cc2)c2c(N)nccn12 [acalabrutinib] | 3.27 | -12 | -16 | -15 | – | –
2 | CCc1cc2c(cc1N1CCC(N3CCOCC3)CC1)C(C)(C)c1[nH]c3cc(C#N)ccc3c1C2=O [alectinib] | 78 | -0.237 | 6 | 0.159 | – | –
3 | COc1cc(N2CCC(N3CCN(C)CC3)CC2)ccc1Nc1ncc(Cl)c(Nc2ccccc2P(C)(C)=O)n1 [brigatinib] | – | – | – | – | – | %-inhibition at 1 µmol/L, FLT3 [1]: 101%; %-inhibition at 1 µmol/L, EEF2K [2]: 2.53%; %-inhibition at 1 µmol/L, DYRK2 [3]: 29%; %-inhibition at 1 µmol/L, CK1γ3 [4]: 0.829%
4 | Cc1cc(Nc2ncc(Cl)c(Nc3ccccc3S(=O)(=O)C(C)C)n2)c(OC(C)C)cc1C1CCNCC1 [ceritinib] | – | 11 | 6.41 | 11 | – | –
5 | O=C(c1ccc(F)c(F)c1Nc1ccc(I)cc1F)N1CC(O)([C@@H]2CCCCN2)C1 [cobimetinib] | -0.393 | -0.685 | -2.74 | 6 | – | –
6 | C[C@@H](Oc1cc(-c2cnn(C3CCNCC3)c2)cnc1N)c1c(Cl)ccc(F)c1Cl [crizotinib] | – | – | – | – | 10 | %-inhibition at 1 µmol/L, EEF2K [2, 9]: -4.6%; %-inhibition at 1 µmol/L, CK1γ3 [4, 11]: 4%
7 | CC(C)(C)c1nc(-c2cccc(NS(=O)(=O)c3c(F)cccc3F)c2F)c(-c2ccnc(N)n2)s1 [dabrafenib] | – | – | – | – | 6 | %-inhibition at 1 µmol/L, FLT3 [1, 12]: 41%
8 | C=CC(=O)N1CCC[C@@H](n2nc(-c3ccc(Oc4ccccc4)cc3)c3c(N)ncnc32)C1 [ibrutinib] | 63 | 1.15 | -1.83 | 4 | – | –
9 | CO[C@@H]1[C@H](N(C)C(=O)c2ccccc2)C[C@H]2O[C@]1(C)n1c3ccccc3c3c4c(c5c6ccccc6n2c5c31)C(=O)NC4 [midostaurin] | – | -9 | – | -1.25 | – | –
10 | C=CC(=O)Nc1cc(Nc2nccc(-c3cn(C)c4ccccc34)n2)c(OC)cc1N(C)CCN(C)C [osimertinib] | 84 | -0.355 | 45 | 13 | – | –
11 | CC(=O)Nc1cccc(-n2c(=O)n(C3CC3)c(=O)c3c(Nc4ccc(I)cc4F)n(C)c(=O)c(C)c32)c1 [trametinib] | – | – | – | – | -0.0865 | %-inhibition at 1 µmol/L, FLT3 [1, 12]: 20%; %-inhibition at 1 µmol/L, EEF2K [2, 9]: -3.43%
12 | CCCS(=O)(=O)Nc1ccc(F)c(C(=O)c2c[nH]c3ncc(-c4ccc(Cl)cc4)cc23)c1F [vemurafenib] | – | – | – | – | 1 | %-inhibition at 1 µmol/L, FLT3 [1, 12]: 10%; %-inhibition at 1 µmol/L, EEF2K [2, 9]: -5%; %-inhibition at 1 µmol/L, CK1γ3 [4, 11]: 2.14%
